Data on two compounds can be found in ChEMBL document CHEMBL4715753, “Bridging computational modeling with amino acid replacements to investigate GHS-R1a-peptidomimetic recognition” (Eur J Med Chem, 2016).

Each structure is given as a SMILES string.

For orientation: IC50 means the concentration that gives 50% inhibition.

For the assay, the target named is Growth hormone secretagogue receptor type 1 (Homo sapiens, UniProt Q92847). In words: Displacement of [125I-His9]-ghrelin from GHS-R1a (unknown origin) expressed in human HEK293 cells incubated for 20 mins by gamma scintillation counting method. In kind it is cell-based.
Chain of Growth hormone secretagogue receptor type 1 (Q92847 whole entry): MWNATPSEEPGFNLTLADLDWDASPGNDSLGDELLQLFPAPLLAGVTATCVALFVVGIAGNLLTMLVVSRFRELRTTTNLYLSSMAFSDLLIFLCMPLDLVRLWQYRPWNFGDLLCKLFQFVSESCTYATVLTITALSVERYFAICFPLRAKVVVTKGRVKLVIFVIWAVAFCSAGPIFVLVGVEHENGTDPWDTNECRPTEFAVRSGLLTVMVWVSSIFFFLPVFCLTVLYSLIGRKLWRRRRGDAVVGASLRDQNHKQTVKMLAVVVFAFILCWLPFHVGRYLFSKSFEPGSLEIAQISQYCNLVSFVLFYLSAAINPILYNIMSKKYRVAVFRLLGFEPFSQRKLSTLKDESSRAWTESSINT

In turn, `NCCCC[C@H](NC(=O)[C@H](Cc1ccncc1)NC(=O)[C@@H](Cc1ccc2ccccc2c1)NC(=O)[C@@H](Cc1ccc2ccccc2c1)NC(=O)C1CCNCC1)C(N)=O` displayed an IC50 of 25 nM. On to `C[C@H](NC(=O)C1CCNCC1)C(=O)N[C@H](Cc1ccc2ccccc2c1)C(=O)N[C@@H](Cc1ccccc1)C(=O)N[C@@H](CCCCN)C(N)=O`, for which the half-inhibitory concentration (IC50) was more than 10000 nM.
